Molecules are shown by their SMILES.

Data set [1] concerns the target L-type voltage-dependent Ca2+ channel (Homo sapiens, UniProt O60840+Q01668+Q13698+Q13936). Nature of the data set: Inhibition of L-type voltage-dependent Ca2+ channel at 1 uM.
Data set [2] in a line: Potentiation of forskolin-induced CFTR deltaF508 mutant expressed in FRT cells co-expressing halide-sensitive YFP-H148Q/I152L by fluorescence quenching assay. Type of data set: cell-based, Homo sapiens.

`CCOC(=O)C1=C(C)NC(C)=C(C(=O)OC)C1c1ccc([N+](=O)[O-])cc1` (stereo not given): 1 µM produced 79.2% inhibition in data set [1]. Turning to `CCOC(=O)C1=C(C)NC(C)=C(C(=O)OCC)C1c1ccccc1`, in data set [1], the inhibition at 1 µM amounted to 100%. In data set [2], the “pEC50 for potentiation of CFTR deltaF508 (activation potency)” value (“pEC50 for potentiation of CFTR deltaF508” below) is given as 6.4. In turn, `CCOC(=O)C1=C(C)NC(C)=C(C(=O)OCC)C1c1cccc([N+](=O)[O-])c1` yielded an inhibition at 1 µM in data set [1] of 100%. In turn, `COC(=O)C1=CNC=C(C(=O)OC)C1c1ccccc1Cl` gave an inhibition at 1 µM in data set [1] of 19.7%. On the same count and under the same terms, with `CCOC(=O)C1=C(C)N=C(C)/C(=C(/O)OCC)C1/C=C/c1ccccc1` (stereo not given) the figure was 46.3%; with `CCOC(=O)C1=C(C)NC(C)=C(C(=O)OCC)C1c1c(F)c(F)c(F)c(F)c1F`, 100%. The same measure, in the same setting: with `CCOC(=O)C1=C(C)N=C(C)/C(=C(/O)OCC)C1/C=C/c1ccccc1OC` (stereo not given) the figure was 27.6%. The same measure, in the same setting: for `CCOC(=O)C1=C(C)NC(C)=C(C(=O)OCC)C1c1ccc(Cl)cc1` the value was 93.3%; for `CCOC(=O)C1=C(C)NC(C)=C(C(=O)OCC)C1c1ccc(C)cc1`, 29.4%; for `CCOC(=O)C1=C(C)N(c2ccc(OC)cc2)C(C)=C(C(=O)OCC)C1c1ccccc1`, 38.7%.

In the case of `COC(=O)C1=C(C)N(c2ccc(N(C)C)cc2)C(C)=C(C(=O)OC)C1c1ccc(Cl)cc1`, 1 µM produced 12.9% inhibition in data set [1]. Molecule `CCOC(=O)C1=C(C)NC(C)=C(C(=O)OCC)C1c1ccc(F)cc1` showed an inhibition at 1 µM in data set [1] of 98.6%. The “pEC50 for potentiation of CFTR deltaF508” value in data set [2] is recorded as 5.87.

Regarding `CCOC(=O)C1=C(C)NC(C)=C(C(=O)OCC)C1c1cc(Cl)cc(Cl)c1OC`, in data set [1], testing at 1 µM gave an inhibition of 100%. For the same molecule, the “pEC50 for potentiation of CFTR deltaF508” value in data set [2] stood at 6.51.

In the case of `CCOC(=O)C1=C(C)NC(C)=C(C(=O)OCC)C1c1ccc(OC)cc1OC`, the inhibition at 1 µM in data set [1] amounted to 41.8%. Besides, in data set [2], the “pEC50 for potentiation of CFTR deltaF508” value is 6.09.

`COC(=O)C1=C(C)NC(C)=C(C(=O)OCCCBr)C1c1cccc([N+](=O)[O-])c1` (stereo not given) registered an inhibition at 1 µM in data set [1] of 100%. Moreover, the “pEC50 for potentiation of CFTR deltaF508” value in data set [2] stood at 6.06. With `CCOC(=O)C1=C(C)NC(C)=C(C(=O)OC)C1c1ccco1` (stereo not given), the inhibition at 1 µM in data set [1] stood at 86.9%. Also, in data set [2], the “pEC50 for potentiation of CFTR deltaF508” value came to 5.85. Taken in the same sequence, the figures for `COC(=O)C1=C(C)NC(C)=C(C(=O)OC)C1c1ccc(Cl)cc1Cl` were 100% and 6.72. For `CCOC(=O)C1=C(C)NC(C)=C(C(=O)OC)C1c1ccc(C)o1` (stereo not given), the inhibition at 1 µM in data set [1] was determined as 37.6%. For the same molecule, in data set [2], the “pEC50 for potentiation of CFTR deltaF508” value is reported as 6.15.

In the case of `CCOC(=O)C1=C(C)NC(C)=C(C(=O)OC)C1c1ccccc1` (stereo not given), the inhibition at 1 µM in data set [1] worked out at 100%. Regarding `COC(=O)C1=C(C)NC(C)=C(C(=O)OC)C1c1ccc(Cl)cc1`, in data set [1], the inhibition at 1 µM was found to be 92.6%. The “pEC50 for potentiation of CFTR deltaF508” value in data set [2] worked out at 5.96. Take `CCOC(=O)C1=C(C)NC(C)=C(C(=O)OC)C1c1ccc(Cl)cc1` (stereo not given): the inhibition at 1 µM in data set [1] was determined as 100%. In addition, in data set [2], the “pEC50 for potentiation of CFTR deltaF508” value stood at 6.51. In turn, `COC(=O)C1=C(C)NC(C)=C(C(=O)OC)C1c1ccccc1Cl` displayed an inhibition at 1 µM in data set [1] of 100%. For the same molecule, the “pEC50 for potentiation of CFTR deltaF508” value in data set [2] came out at 6.34. The molecule `CCOC(=O)C1=C(C)NC(C)=C(C(=O)OCC)C1c1ccc(Br)cc1` gave an inhibition at 1 µM in data set [1] of 27.1%. For the same molecule, in data set [2], the “pEC50 for potentiation of CFTR deltaF508” value was found to be 6.3.

In the case of `CCOC(=O)C1=C(C)NC(C)=C(C(=O)OCC)C1c1ccc(Cl)c(Cl)c1`, the inhibition at 1 µM in data set [1] was 100%. The “pEC50 for potentiation of CFTR deltaF508” value in data set [2] was 6.1.

The molecule `CCOC(=O)C1=C(C)NC(C)=C(C(=O)OCC)C1c1ccc(OC)cc1` showed an inhibition at 1 µM in data set [1] of 34.2%. As for `COC(=O)C1=C(C)NC(C)=C(C(=O)OC)C1c1ccc(N(C)C)cc1`, in data set [1], at 1 µM the inhibition was 4.1%. Still for that read-out and setting: for `CCOC(=O)C1=C(C)NC(C)=C(C(=O)OC)C1c1cccc([N+](=O)[O-])c1` (stereo not given) [NITRENDIPINE] the value was 100%.

For orientation: inhibition means the relative decrease from the control value, in per cent. High values mean a strong effect, low ones a weak effect.
